Measurements taken from patent publication EP0750618B1, “OXAZOLIDINONE DERIVATIVES AND PHARMACEUTICAL COMPOSITIONS CONTAINING THEM” (priority 1994, dated 1995).
Values after ≈ are worked out from the molar mass of the structure shown. Where two headings read alike, the source gives them in different places.

How the values were obtained:
Staphylococcus aureus = test: MIC test, standard agar dilution method
[1] = test system: Streptococcus pyogenes (UC 152); test: MIC test, standard agar dilution method; details: UC152, read-out: Minimum Inhibitory Concentrations (MIC) S. pyogenes
[2] = test system: Staphylococcus epidermidis (UC 12084); test: MIC test, standard agar dilution method; type: cell-based; details: UC12084, incubated overnight at 35°C, read-out: Minimum Inhibitory Concentrations (MIC) S. enidermidis
[3] = test system: Staphylococcus aureus (UC 9213); test: Murine Assay procedure (in vivo), survival after intraperitoneal infection; details: UC9213, 144 h, oral administration one hour and five hours after infection, female mice infected i.p. with S. aureus UC 9213, survival over six days, probit analysis
Method: Groups of female mice (six mice of 18-20 grams each) were injected intraperitoneally with Staphylococcus aureus (UC 9213) bacteria which were thawed just prior to use and suspended in brain heart infusion with 4% brewer's yeast (Staphylococcus aureus) or brain heart infusion (Streptococcus species). Antibiotic treatment at six dose levels per drug (compound) was administered one hour and five hours after infection by either oral intubation or subcutaneous routes. Survival was observed daily for six days. ED50 values based on mortality ratios were calculated using probit analysis.

[4] = test system: Mycobacterium tuberculosis; test: MIC test, standard agar dilution method; type: cell-based; details: read-out: Minimum Inhibitory Concentrations (MIC) M. tuberculosis
[5] = UC9213, read-out: Minimum Inhibitory Concentrations (MIC) S. aureus

SMILES	MIC (Staphylococcus aureus; [5])	MIC [1]	MIC [2]	ED50 [3]	MIC (Staphylococcus aureus; UC9218, read-out: Minimum Inhibitory Concentrations (MIC) S. aureus)	MIC [4]
COC(=O)NC1CCN(c2ccc(N3C[C@H](CNC(C)=O)OC3=O)cc2F)CC1 [Compound No. 30, (S)-N-{3-[3-fluoro-4-(4-methoxycarbonylamino-piperidin-1-yl)-phenyl]-2-oxo-oxazolidin-5-ylmethyl}-acetamide]	4 µg/mL (≈ 9.79 µM)	2 µg/mL (≈ 4.9 µM)	2 µg/mL (≈ 4.9 µM)	2.8 mg/kg		
CC(=O)NC[C@H]1CN(c2ccc(N3CCC(=O)CC3)c(F)c2)C(=O)O1 [Compound No. 7, (S)-N-{3-[3-fluoro-4-(4-oxo-piperidin-1-yl)-phenyl]-2-oxo-oxazolidin-5-ylmethyl}-acetamide]	2 µg/mL (≈ 5.72 µM)	2 µg/mL (≈ 5.72 µM)	0.5 µg/mL (≈ 1.43 µM)	8.1 mg/kg		
COC(=O)NN=C1CCN(c2ccc(N3C[C@H](CNC(C)=O)OC3=O)cc2F)CC1 [Compound No. 31, (S)-N-{3-[3-fluoro-4-(4-methoxycarbonylhydrazono-piperidin-1-yl)-phenyl]-2-oxo-oxazolidin-5-ylmethyl}-acetamide]	2 µg/mL (≈ 4.75 µM)	1 µg/mL (≈ 2.37 µM)	0.5 µg/mL (≈ 1.19 µM)	5 mg/kg		
CC(=O)NC[C@H]1CN(c2ccc(N3CCC(=NO)CC3)c(F)c2)C(=O)O1 [Compound No. 11, (S)-N-{3-[3-fluoro-4-(4-hydroxyimino-piperidin-1-yl)-phenyl]-2-oxo-oxazolidin-5-ylmethyl}-acetamide]	2 µg/mL (≈ 5.49 µM)	1 µg/mL (≈ 2.74 µM)	1 µg/mL (≈ 2.74 µM)	8.2 mg/kg		
CCOC(=O)C1CCN(c2ccc(N3C[C@H](CNC(C)=O)OC3=O)cc2F)CC1 [Compound No. 1, (S)-1-{4-[5-(acetylamino-methyl)-2-oxo-oxazolidin-3-yl]-2-fluoro-phenyl}-piperidine-4-carboxylic acid ethyl ester]		2 µg/mL (≈ 4.91 µM)	2 µg/mL (≈ 4.91 µM)		8 µg/mL (≈ 19.6 µM)	1 µg/mL (≈ 2.45 µM)
CC(=O)NC[C@H]1CN(c2ccc(N3CCC(O)CC3)c(F)c2)C(=O)O1 [Compound No. 3, (S)-N-{3-[3-fluoro-4-(4-hydroxy-piperidin-1-yl)-phenyl]-2-oxo-oxazolidin-5-ylmethyl}-acetamide]	8 µg/mL (≈ 22.8 µM)	2 µg/mL (≈ 5.69 µM)	2 µg/mL (≈ 5.69 µM)			1 µg/mL (≈ 2.85 µM)
